Assay results taken from US20250171457A1, “NITROGEN-CONTAINING HETEROCYCLIC COMPOUND HAVING NRF2 ACTIVATION EFFECT” (CHUGAI SEIYAKU KABUSHIKI KAISHA, priority 2022, published 2025).
Like-named read-outs stand apart in the source and are kept apart here.

Tests used:
[1] = test system: Nrf2 transcriptional activity (pARE-Luc reporter) in HepG2 cells; assay: In vitro Nrf2 transcriptional activity measurement by ARE-dependent reporter assay in HepG2 cell; assay type: cell-based, human
Summary of the method: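 HepG2 cells transfected with pGL4.37 (pARE-Luc), replated onto compound and incubated 4 h at 37° C; luciferase read by Bright-Glo luminescence. Response normalized to 100% set by a reference compound at 3.75 μM; EC50 from dose-response curve.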

[2] = test system: Nqo1 (NAD(P)H quinone dehydrogenase 1) mRNA, Nrf2 downstream molecule; assay: In vivo Nrf2 transcriptional activity measurement (Nqo1 mRNA in organs by qPCR); settings: Mus musculus, C57BL/6J mice, 7 to 8 hours; for fold induction at 10 mg/kg / fold induction at 15 mg/kg: ip, Intraperitoneal; for fold induction at 30 mg/kg: Oral
Experimental: Test Example 2: In Vivo Nrf2 Transcriptional Activity Measurement
A test compound (solvent: 10 vol % dimethyl sulfoxide/50 mM glycine/32 mM sodium hydroxide/physiological saline) was administered to C57BL/6J mice (7-8 weeks old), which were euthanized by whole blood collection under isoflurane anesthesia 7 to 8 hours later, followed by the collection of various organs. mRNA was purified from the collected organs, and the mRNA expression level of Mapk1 as an internal control and the mRNA expression level of Nqo1 (NAD(P)H quinone dehydrogenase 1) as a typical Nrf2 downstream molecule were each measured by qPCR. The Nqo1 mRNA expression level was quantified by comparative CT, and an expression level ratio to a non-administration group was calculated. The administration of the test compound elevated the Nqo1 mRNA expression level in the various organs, confirming that the test compound also has a Nrf2-activating effect in vivo.

[3] = Homo sapiens, HepG2 cells transfected with pARE-Luc, 4 hours at 37° C., luciferase activity of Example 1-54 or Example 17-23 at 3.75 μM defined as 100%
[4] = kidney, read-out: Nqo1 mRNA expression level ratio to non-administration group, Kidney
[5] = liver, read-out: Nqo1 mRNA expression level ratio to non-administration group, Liver
[6] = lung, read-out: Nqo1 mRNA expression level ratio to non-administration group, Lung

Compound	EC50 [1, 3]	fold induction at 10 mg/kg [2, 4]	fold induction at 10 mg/kg [2, 5]	fold induction at 10 mg/kg [2, 6]	further results
COC1(OC)CN(c2cc(Cl)c(C(=O)N3COc4c(cccc4-c4cc(N5C6CCC5COC6)c(C(=O)O)cc4F)C3)c(Cl)c2)C1 [Compound 5-1, 4-[3-[2,6-Dichloro-4-(3,3-dimethoxyazetidin-1-yl)benzoyl]-2,4-dihydro-1,3-benzoxazin-8-yl]-5-fluoro-2-(3-oxa-8-azabicyclo[3.2.1]octan-8-yl)benzoic acid]	1.6 nM	4.4	6.8	19	fold induction at 30 mg/kg [2, 4]: 5.1; fold induction at 30 mg/kg [2, 5]: 3.9; fold induction at 30 mg/kg [2, 6]: 17
Cn1cc(-c2cc(Cl)c(C(=O)N3COc4c(cccc4-c4ccc(C(=O)O)c(N5CCOCC5)c4)C3)c(Cl)c2)cn1 [Compound 14-1, 4-[3-[2,6-Dichloro-4-(1-methylpyrazol-4-yl)benzoyl]-2,4-dihydro-1,3-benzoxazin-8-yl]-2-morpholin-4-ylbenzoic acid]	3.2 nM	–	–	–	fold induction at 30 mg/kg [2, 4]: 5.7; fold induction at 30 mg/kg [2, 5]: 4.2; fold induction at 30 mg/kg [2, 6]: 17
C[C@@H]1CN(C)CCN1c1cc(Cl)c(C(=O)N2COc3c(cccc3-c3cc(N4C5CCC4COC5)c(C(=O)O)cc3F)C2)c(Cl)c1 [Compound 1-33, 4-[3-[2,6-Dichloro-4-[(2R)-2,4-dimethylpiperazin-1-yl]benzoyl]-2,4-dihydro-1,3-benzoxazin-8-yl]-5-fluoro-2-(3-oxa-8-azabicyclo[3.2.1]octan-8-yl)benzoic acid]	–	3.7	5.5	13	EC50 ([1]; HepG2 cells, pARE-Luc reporter, 4 hours, 100% = Example 1-54 or Example 17-23 at 3.75 μM (repeat print of Table 20-1)): 1.9 nM; fold induction at 30 mg/kg [2, 4]: 5.1; fold induction at 30 mg/kg [2, 5]: 5.2; fold induction at 30 mg/kg [2, 6]: 18
O=C(O)c1cc(F)c(-c2cccc3c2OCN(C(=O)c2c(Cl)cc(N4CC5(CN(CC(F)F)C5)C4)cc2Cl)C3)cc1N1C2CCC1COC2 [Compound 7-2, 4-[3-[2,6-Dichloro-4-[6-(2,2-difluoroethyl)-2,6-diazaspiro[3.3]heptan-2-yl]benzoyl]-2,4-dihydro-1,3-benzoxazin-8-yl]-5-fluoro-2-(3-oxa-8-azabicyclo[3.2.1]octan-8-yl)benzoic acid]	4.6 nM	–	–	–	fold induction at 15 mg/kg [2, 4]: 4.3; fold induction at 15 mg/kg [2, 5]: 6.2; fold induction at 15 mg/kg [2, 6]: 11
O=C(O)c1cc(F)c(-c2cccc3c2OCN(C(=O)c2c(Cl)cc(N4CC5(CCOCC5)C4)cc2Cl)C3)cc1N1C2CCC1COC2 [Compound 1-18, 4-[3-[2,6-Dichloro-4-(7-oxa-2-azaspiro[3.5]nonan-2-yl)benzoyl]-2,4-dihydro-1,3-benzoxazin-8-yl]-5-fluoro-2-(3-oxa-8-azabicyclo[3.2.1]octan-8-yl)benzoic acid]	4.3 nM	2.5	6	8.7	–
O=C(O)c1cc(F)c(-c2cccc3c2OCN(C(=O)c2c(Cl)cc(N4CC5(C4)CC4(C5)OCCCO4)cc2Cl)C3)cc1N1C2CCC1COC2 [Compound 5-10, 4-[3-[2,6-Dichloro-4-(7,11-dioxa-2-azadispiro[3.1.56.14]dodecan-2-yl)benzoyl]-2,4-dihydro-1,3-benzoxazin-8-yl]-5-fluoro-2-(3-oxa-8-azabicyclo[3.2.1]octan-8-yl)benzoic acid]	3.2 nM	–	–	–	fold induction at 15 mg/kg [2, 4]: 5.1; fold induction at 15 mg/kg [2, 5]: 5.4; fold induction at 15 mg/kg [2, 6]: 17
COC1CC2(C1)CN(c1cc(Cl)c(C(=O)N3COc4c(cccc4-c4ccc(C(=O)O)c(N5C6CCC5COC6)c4)C3)c(Cl)c1)C2 [Compound 1-83, 4-[3-[2,6-Dichloro-4-(6-methoxy-2-azaspiro[3.3]heptan-2-yl)benzoyl]-2,4-dihydro-1,3-benzoxazin-8-yl]-2-(3-oxa-8-azabicyclo[3.2.1]octan-8-yl)benzoic acid]	2.4 nM	–	–	–	fold induction at 15 mg/kg [2, 4]: 4.7; fold induction at 15 mg/kg [2, 5]: 6.5; fold induction at 15 mg/kg [2, 6]: 21
COCCOc1cc(Cl)c(C(=O)N2COc3c(cccc3-c3cc(N4C5CCC4COC5)c(C(=O)O)cc3F)C2)c(Cl)c1 [Compound 4-37, 4-[3-[2,6-Dichloro-4-(2-methoxyethoxy)benzoyl]-2,4-dihydro-1,3-benzoxazin-8-yl]-5-fluoro-2-(3-oxa-8-azabicyclo[3.2.1]octan-8-yl)benzoic acid]	6.3 nM	4	8	5.4	–
COc1ccc(-c2cc(Cl)c(C(=O)N3COc4c(cccc4-c4cc(N5C6CCC5COC6)c(C(=O)O)cc4F)C3)c(Cl)c2)cn1 [Compound 2-2, 4-[3-[2,6-Dichloro-4-(6-methoxypyridin-3-yl)benzoyl]-2,4-dihydro-1,3-benzoxazin-8-yl]-5-fluoro-2-(3-oxa-8-azabicyclo[3.2.1]octan-8-yl)benzoic acid]	6.5 nM	5.3	5.8	17	–
O=C(O)c1cc(F)c(-c2cccc3c2OCN(C(=O)c2c(Cl)cc(N4CC5(CC(OC(F)F)C5)C4)cc2Cl)C3)cc1N1C2CCC1COC2 [Compound 1-21, 4-[3-[2,6-Dichloro-4-[6-(difluoromethoxy)-2-azaspiro[3.3]heptan-2-yl]benzoyl]-2,4-dihydro-1,3-benzoxazin-8-yl]-5-fluoro-2-(3-oxa-8-azabicyclo[3.2.1]octan-8-yl)benzoic acid]	2.9 nM	3.7	4.7	10	–
CC1(C)COC2(CN(c3cc(Cl)c(C(=O)N4COc5c(cccc5-c5cc(N6C7CCC6COC7)c(C(=O)O)cc5F)C4)c(Cl)c3)C2)OC1 [Compound 5-9, 4-[3-[2,6-Dichloro-4-(7,7-dimethyl-5,9-dioxa-2-azaspiro[3.5]nonan-2-yl)benzoyl]-2,4-dihydro-1,3-benzoxazin-8-yl]-5-fluoro-2-(3-oxa-8-azabicyclo[3.2.1]octan-8-yl)benzoic acid]	–	–	–	–	EC50 ([1]; HepG2 cells transfected with pARE-Luc, 4 hours at 37° C., luciferase activity of Example 1-54 or Example 17-23 at 3.75 μM defined as 100%, second printing of Table 20-1): 1.7 nM; fold induction at 15 mg/kg [2, 4]: 3.7; fold induction at 15 mg/kg [2, 5]: 6.7; fold induction at 15 mg/kg [2, 6]: 15; fold induction at 30 mg/kg [2, 4]: 5.2; fold induction at 30 mg/kg [2, 5]: 6; fold induction at 30 mg/kg [2, 6]: 19
CCN1CCN(c2cc(Cl)c(C(=O)N3COc4c(cccc4-c4cc(N5C6CCC5COC6)c(C(=O)O)cc4F)C3)c(Cl)c2)CC1 [Compound 4-8, 4-[3-[2,6-Dichloro-4-(4-ethylpiperazin-1-yl)benzoyl]-2,4-dihydro-1,3-benzoxazin-8-yl]-5-fluoro-2-(3-oxa-8-azabicyclo[3.2.1]octan-8-yl)benzoic acid]	5.8 nM	3.4	6.7	6.2	–
O=C(O)c1cc(F)c(-c2cccc3c2OCN(C(=O)c2c(Cl)cc(N4CCOCC4)cc2Cl)C3)cc1N1C2CCC1COC2 [Compound 4-19, 4-[3-(2,6-Dichloro-4-morpholin-4-ylbenzoyl)-2,4-dihydro-1,3-benzoxazin-8-yl]-5-fluoro-2-(3-oxa-8-azabicyclo[3.2.1]octan-8-yl)benzoic acid]	2.9 nM	–	–	–	–
COCC(F)(F)CN1CC2(C1)CN(c1cc(Cl)c(C(=O)N3COc4c(cccc4-c4cc(N5C6CCC5COC6)c(C(=O)O)cc4F)C3)c(Cl)c1)C2 [Compound 16-17, 4-[3-[2,6-Dichloro-4-[6-(2,2-difluoro-3-methoxypropyl)-2,6-diazaspiro[3.3]heptan-2-yl]benzoyl]-2,4-dihydro-1,3-benzoxazin-8-yl]-5-fluoro-2-(3-oxa-8-azabicyclo[3.2.1]octan-8-yl)benzoic acid]	2.7 nM	–	–	–	–
O=C(O)c1cc(F)c(-c2cccc3c2OCN(C(=O)c2c(Cl)cc(N4CC5(C4)OCC4(CC4)CO5)cc2Cl)C3)cc1N1C2CCC1COC2 [Compound 5-5, 4-[3-[2,6-Dichloro-4-(5,10-dioxa-8-azaspiro[2.2.36.23]undecan-8-yl)benzoyl]-2,4-dihydro-1,3-benzoxazin-8-yl]-5-fluoro-2-(3-oxa-8-azabicyclo[3.2.1]octan-8-yl)benzoic acid]	1 nM	–	–	–	–
